Paper PMC7290441 (Viruses, 2020)
Counter-ions that a name gives are not always drawn.

Target: PR8M2-S (A27V/N31S reverse mutant of PR8 M2) (Influenza A virus, UniProt P06821, A27V/N31S)
Assay type: biochemical
Settings: pH 5.2

| SMILES | effect on proton channel function of PR8M2-S |
| --- | --- |
| NC12CC3CC(CC(C3)C1)C2 [AMT, amantadine hydrochloride] | inhibited |
| CC(CCc1ccccc1)NC(C)C(O)c1ccc(O)cc1 (centres unmarked) [Nylidrin, nylidrin] | no effect |
